Data from patent US11744819B2, “Antibiotic cannabinoid-terpene formulations” (priority 2019, dated 2023).
Values after ≈ are worked out from the molar mass of the structure shown. Like-named read-outs stand apart in the source and are kept apart here.

Key:
E. faecium 3303 = assay: microbe, parasite or virus in culture; format: cell-based, Enterococcus faecium; conditions: for Max. fold change in MIC: decrease
Excerpt: In therapeutic applications, synergy between active ingredients occurs when an observed combined therapeutic effect is greater than the sum of therapeutic effects of individual active ingredients, or a new therapeutic effect is produced that the active ingredients could not produce alone. […] In this context, the enhancement of therapeutic effect may take the form of increased efficacy or potency and/or decreased adverse effects. The synergistic effect may be mediated in whole or in part by the pharmacokinetics and/or pharmacodynamics of the active ingredients in a subject, so that the amount and proportion of the ingredients in the formulation may be synergistic in vivo. This in vivo synergy may be effected with a formulation that includes the active ingredients in amounts and proportions that are also synergistic in in vitro assays of efficacy. As used herein, the term “synergistically effective amounts” accordingly refers to amounts that are synergistic in vivo and/or in vitro. A numeric quantification of synergy is often expressed as a fractional inhibitory concentration index (FICI), which represents the sum of the fractional inhibitory concentrations (FICs) of each drug tested, where the FIC is determined for each drug by dividing the minimum inhibitory concentration (MIC, the lowest concentration of the drug which prevents visible growth of the bacterium in a standard in vitro assay-standard colorometric assay based on resazurin) of each drug when used in combination by the MIC of each drug when used alone. In very general terms, a FICI lower or higher than 1 indicates positively correlated activity (at least additive or potentiation) or an absence of positive interactions, respectively. More definitively, synergy of two compounds may be conservatively defined as a FICI of ::::0.5 (see Odds, 2003; with additivity or potentiation corresponding to a FICI of >0.5 to ::::0.75; no interaction (indifference) corresponding to a FICI of >1 to ::::4; and antagonism corresponding to a FICI of >>4). Synergy of three compounds has been defined as a FICI of ::::1.0. (Berenbaum, 1978; Yu et al., 1980). To estimate the optimal concentrations in triple combinations, the optimal concentrations of trans-caryophyllene and cannabinoid were utilized in combination with a series of daptomycin dilutions.
(§1) Pre-cultures of bacteria growing in their corresponding liquid media (defined below) were diluted to an 00600 of 0.0025 and 100 μl was added to 100 μl of medium containing serial 2-fold dilutions of cannabinoid (cannabinoid stocks, in methanol or acetonitrile for acidic forms, were diluted in growth medium) in 96-well plates. Plates were then incubated for 20-24 h at 37° C., and growth was recorded as 00600 in a Thermo Scientific™ Varioskan™ Flash Multimode Reader.
Method for Tables 4-7. Interaction of Cannabinoids CBC, CBD and CBG with Terpenes and Daptomycin:
(§2) FICI values was determined in a 96 well checkerboard format using the MIC assay for cannabinoids (compound A), terpenes (compound B), and daptomycin (compound C) alone and in combinations. Terpene stocks were prepared in DMSO and diluted in the growth medium. The fractional inhibitory concentration for each compound was calculated as follows: FICA=(MIC of compound A in the presence of compound B)/(MIC of compound A alone). Similarly, the FICs for compounds Band C were calculated. The FICI was calculated as FICA plus FICs plus FICc.

[1] = system: Staphylococcus epidermidis ATCC 14990; assay: MIC determination; format: cell-based; conditions: ATCC14990; Staphylococcus epidermidis ATCC 14990; read-out: MIC
[2] = system: E. faecium clinical isolate 69C6 (vancomycin resistant); assay: microbe, parasite or virus in culture; conditions: Enterococcus faecium
[3] = system: Mycobacterium tuberculosis H37Rv; assay: MIC determination (PrestoBlue); format: cell-based; conditions: Mycobacterium tuberculosis, H37RV
Enterococcus faecalis = assay: MIC determination; format: cell-based; conditions: read-out: MIC
E. faecium VRE 55A6 = assay: microbe, parasite or virus in culture; format: cell-based, Enterococcus faecium
Excerpt: In therapeutic applications, synergy between active ingredients occurs when an observed combined therapeutic effect is greater than the sum of therapeutic effects of individual active ingredients, or a new therapeutic effect is produced that the active ingredients could not produce alone. […] In this context, the enhancement of therapeutic effect may take the form of increased efficacy or potency and/or decreased adverse effects. The synergistic effect may be mediated in whole or in part by the pharmacokinetics and/or pharmacodynamics of the active ingredients in a subject, so that the amount and proportion of the ingredients in the formulation may be synergistic in vivo. This in vivo synergy may be effected with a formulation that includes the active ingredients in amounts and proportions that are also synergistic in in vitro assays of efficacy. As used herein, the term “synergistically effective amounts” accordingly refers to amounts that are synergistic in vivo and/or in vitro. A numeric quantification of synergy is often expressed as a fractional inhibitory concentration index (FICI), which represents the sum of the fractional inhibitory concentrations (FICs) of each drug tested, where the FIC is determined for each drug by dividing the minimum inhibitory concentration (MIC, the lowest concentration of the drug which prevents visible growth of the bacterium in a standard in vitro assay-standard colorometric assay based on resazurin) of each drug when used in combination by the MIC of each drug when used alone. In very general terms, a FICI lower or higher than 1 indicates positively correlated activity (at least additive or potentiation) or an absence of positive interactions, respectively. More definitively, synergy of two compounds may be conservatively defined as a FICI of ::::0.5 (see Odds, 2003; with additivity or potentiation corresponding to a FICI of >0.5 to ::::0.75; no interaction (indifference) corresponding to a FICI of >1 to ::::4; and antagonism corresponding to a FICI of >>4). […] (Berenbaum, 1978; Yu et al., 1980). To estimate the optimal concentrations in triple combinations, the optimal concentrations of trans-caryophyllene and cannabinoid were utilized in combination with a series of daptomycin dilutions.
as §1, §2

[4] = system: Staphylococcus aureus MRSA; assay: microbe, parasite or virus in culture; format: cell-based; conditions: read-out: MIC
[5] = E. faecium 3303, pairwise, with daptomycin
[6] = E. faecium 3303, pairwise, with trans-caryophyllene
[7] = E. faecium 3303, triple, with daptomycin and trans-caryophyllene

C=C(C)[C@@H]1CCC(C)=C[C@H]1c1c(O)cc(CCCCC)cc1O [CBD, cannabidiol, reference compound]
MIC Alone (E. faecium 3303; E. faecium 3303, compound alone in checkerboard): 2 µg/mL
MIC In combination (E. faecium 3303; [5]): 1 µg/mL
Max. fold change in MIC (E. faecium 3303; [5]): 4″′ fold
MIC In combination (E. faecium 3303; [6]): 0.125 µg/mL
Max. fold change in MIC (E. faecium 3303; [6]): 16″′ fold
MIC In combination (E. faecium 3303; [7]): 0.5 µg/mL
Max. fold change in MIC (E. faecium 3303; [7]): 4 fold
MIC (E. faecium 3303; Enterococcus faecium, 3303, read-out: MIC Alone, E. faecium 3303, compound alone in checkerboard): 4 µg/mL
MIC [1]: 2 µg/mL (≈ 6.36 µM)
MIC [2]: 1 µg/mL (≈ 3.18 µM)
MIC ([3]; Media 7H9, read-out: MIC): 16 µg/mL (≈ 50.9 µM)
MIC ([3]; Media PB, read-out: MIC): 4 µg/mL (≈ 12.7 µM)
MIC (Enterococcus faecalis): 2 µg/mL (≈ 6.36 µM)
MIC Alone (E. faecium VRE 55A6; E. faecium VRE 55A6, compound alone in checkerboard): 2 µg/mL
MIC In combination (E. faecium VRE 55A6; E. faecium VRE 55A6, pairwise, with daptomycin): 0.5 µg/mL
MIC In combination (E. faecium VRE 55A6; E. faecium VRE 55A6, pairwise, with trans-caryophyllene): 1 µg/mL
MIC In combination (E. faecium VRE 55A6; E. faecium VRE 55A6, triple, with daptomycin and trans-caryophyllene): 0.5 µg/mL
MIC (E. faecium VRE 55A6; Enterococcus faecium, VRE, read-out: MIC Alone, E. faecium VRE 55A6, compound alone in checkerboard): 4 µg/mL
MIC [4]: 2 µg/mL (≈ 6.36 µM)
